pIC50: −log10 of the molar value. Calls of active or inactive are those of the source. The rule behind the calls is not given here.
Key:
J774.A1 [1] = assay: Anti-inflammatory activity in mouse J774.A1 cells assessed as inhibition of LPS-induced IL-6 production at 10 uM pre-stimulated with LPS for 24 hrs followed by compound addition and measured after 0.5 hrs by ELISA analysis relative to control; assay type: functional
J774.A1 [2] = assay: Anti-inflammatory activity in mouse J774.A1 cells assessed as inhibition of LPS-induced TNF-alpha production at 10 uM pre-stimulated with LPS for 24 hrs followed by compound addition and measured after 0.5 hrs by ELISA analysis relative to control; assay type: functional
J774.A1 [3] = assay: Anti-inflammatory activity in mouse J774.A1 cells assessed as inhibition of LPS-induced IL-6 production pre-stimulated with LPS for 24 hrs followed by compound addition and measured after 0.5 hrs by ELISA analysis; assay type: functional, cell-based
J774.A1 [4] = assay: Cytotoxicity against mouse J774.A1 cells assessed as reduction in cell survival incubated for 24 hrs by MTT assay; assay type: toxicity, cell-based; conditions: j774.a1, 24 h
J774.A1 [5] = assay: Inhibition of NF-kappaB pathway in LPS-induced mouse J774.A1 cells assessed as […] in IkappaB-alpha phosphorylation at 10 to 40 uM preincubated with compound for 2 hrs followed by LPS-stimulation and measured after 15 mins by Western blot analysis; assay type: cell-based; conditions: dose 10-40 µM, time 135.0 min
[6] = Half-life in Sprague-Dawley rat at 1 mg/kg, iv measured at 5 to 1440 min by LC-MS/MS analysis; assay type: ADME, organism-based; conditions: in vivo, time 5-1440 min
[7] = Cmax in Sprague-Dawley rat at 1 mg/kg, iv measured at 5 to 1440 min by LC-MS/MS analysis; assay type: ADME, organism-based; design: time upper 1440 min, dose 1 mg/kg, time lower 5 min, route iv; conditions: in vivo
[8] = Tmax in Sprague-Dawley rat at 10 mg/kg, po measured at 15 to 1440 min by LC-MS/MS analysis; assay type: ADME, organism-based; conditions: in vivo, time 15-1440 min
[9] = AUC (0 to t) in Sprague-Dawley rat at 10 mg/kg, po measured at 15 to 1440 min by LC-MS/MS analysis; assay type: ADME, organism-based; design: time 15-1440 min, dose 10 mg/kg, route po; conditions: in vivo
[10] = Oral bioavailability in Sprague-Dawley rat at 10 mg/kg measured at 15 to 1440 min by LC-MS/MS analysis; assay type: ADME, organism-based; conditions: in vivo, time 15-1440 min
[11] = Drug distribution in Sprague-Dawley rat heart at 1 mg/kg, iv measured after 0.5 hrs by LC-MS/MS analysis; assay type: ADME, organism-based; conditions: read-out: Drug uptake
[12] = Drug distribution in Sprague-Dawley rat lung at 1 mg/kg, iv measured after 0.5 hrs by LC-MS/MS analysis; assay type: ADME, organism-based; conditions: read-out: Drug uptake
[13] = Drug distribution in Sprague-Dawley rat spleen at 1 mg/kg, iv measured after 0.5 hrs by LC-MS/MS analysis; assay type: ADME, organism-based; conditions: read-out: Drug uptake
[14] = Drug distribution in Sprague-Dawley rat brain at 1 mg/kg, iv measured after 2 hrs by LC-MS/MS analysis; assay type: ADME, organism-based; conditions: read-out: Drug uptake
[15] = Drug distribution in Sprague-Dawley rat lung at 1 mg/kg, iv measured after 2 hrs by LC-MS/MS analysis; assay type: ADME, organism-based; conditions: read-out: Drug uptake
[16] = Drug distribution in Sprague-Dawley rat brain at 1 mg/kg, iv measured after 4 hrs by LC-MS/MS analysis; assay type: ADME, organism-based; conditions: read-out: Drug uptake
[17] = Drug distribution in Sprague-Dawley rat liver at 1 mg/kg, iv measured after 4 hrs by LC-MS/MS analysis; assay type: ADME, organism-based; conditions: read-out: Drug uptake
[18] = Drug distribution in Sprague-Dawley rat spleen at 1 mg/kg, iv measured after 4 hrs by LC-MS/MS analysis; assay type: ADME, organism-based; conditions: read-out: Drug uptake
[19] = Drug distribution in Sprague-Dawley rat kidney at 10 mg/kg, po measured after 1 hrs by LC-MS/MS analysis; assay type: ADME, organism-based; conditions: read-out: Drug uptake
[20] = Drug distribution in Sprague-Dawley rat lung at 10 mg/kg, po measured after 1 hrs by LC-MS/MS analysis; assay type: ADME, organism-based; conditions: read-out: Drug uptake
[21] = Drug distribution in Sprague-Dawley rat liver at 10 mg/kg, po measured after 1 hrs by LC-MS/MS analysis; assay type: ADME, organism-based; conditions: read-out: Drug uptake
[22] = Drug distribution in Sprague-Dawley rat spleen at 10 mg/kg, po measured after 1 hrs by LC-MS/MS analysis; assay type: ADME, organism-based; conditions: read-out: Drug uptake
[23] = Drug distribution in Sprague-Dawley rat kidney at 10 mg/kg, po measured after 3 hrs by LC-MS/MS analysis; assay type: ADME, organism-based; conditions: read-out: Drug uptake
[24] = Drug distribution in Sprague-Dawley rat liver at 10 mg/kg, po measured after 3 hrs by LC-MS/MS analysis; assay type: ADME, organism-based; conditions: read-out: Drug uptake
[25] = Drug distribution in Sprague-Dawley rat kidney at 10 mg/kg, po measured after 8 hrs by LC-MS/MS analysis; assay type: ADME, organism-based; conditions: read-out: Drug uptake
[26] = Drug distribution in Sprague-Dawley rat lung at 10 mg/kg, po measured after 8 hrs by LC-MS/MS analysis; assay type: ADME, organism-based; conditions: read-out: Drug uptake
[27] = Drug distribution in Sprague-Dawley rat spleen at 10 mg/kg, po measured after 8 hrs by LC-MS/MS analysis; assay type: ADME, organism-based; conditions: read-out: Drug uptake
[28] = Toxicity in ICR mouse assessed as effect on body weight change at 20 to 400 mg/kg, po measured upto 21 days; assay type: organism-based; conditions: in vivo, 504 h, dose 20-400 mg/kg, time < 21 day
[29] = Toxicity in ICR mouse assessed as mortality at 20 to 400 mg/kg, po measured upto 21 days; assay type: organism-based; conditions: in vivo, 504 h, dose 20-400 mg/kg, time < 21 day
Mus musculus [30] = assay: Anti-inflammatory activity against LPS-induced […] mouse model of […] assessed as alleviation of thickened alveolar septa in lung at 20 mg/kg, po pre-treated with compound for 30 mins followed by LPS stimulation and measured after 6 hrs by H&E staining based histopathological analysis; assay type: functional, organism-based; conditions: time 6.5 hrs
Mus musculus [31] = assay: Anti-inflammatory activity against LPS-induced […] mouse model of […] assessed as alleviation of lung edema by measuring decrease in wet/dry weight ratio at 20 mg/kg, po pre-treated with compound for 30 mins followed by LPS stimulation and measured after 6 hrs; assay type: functional, organism-based; conditions: time 6.5 hrs
Mus musculus [32] = assay: Anti-inflammatory activity against LPS-induced […] mouse model of […] assessed as decrease in TNF-alpha level in serum at 20 mg/kg, po pre-treated with compound for 30 mins followed by LPS stimulation and measured after 6 hrs; assay type: functional, organism-based; conditions: time 6.5 hrs
Mus musculus [33] = assay: Anti-inflammatory activity against LPS-induced […] mouse model of […] assessed as decrease in IL-6 level in BALF at 20 mg/kg, po pre-treated with compound for 30 mins followed by LPS stimulation and measured after 6 hrs; assay type: functional, organism-based; conditions: time 6.5 hrs
Mus musculus [34] = assay: Anti-inflammatory activity against LPS-induced […] mouse model of […] assessed as decrease in IL-6 mRNA level in lung at 20 mg/kg, po pre-treated with compound for 30 mins followed by LPS stimulation and measured after 6 hrs by qRT-PCR analysis; assay type: functional, organism-based; conditions: time 6.5 hrs

Work on `COc1ccc(NS(=O)(=O)c2ccc(N3CCN(Cc4cccc([N+](=O)[O-])c4)CC3)c([N+](=O)[O-])c2)cn1` yielded an inhibition at 10 µM (J774.A1 [1]) of 69%, an inhibition at 10 µM (J774.A1 [2]) of 36.7% and a pIC50 (J774.A1 [3]) of 5.66. The Activity (J774.A1 [4]) was “Non-Toxic”, the inhibition (J774.A1 [5]) was “Active” and the half-life [6] was 66 min. The Cmax [7] was 2770 ng/mL, the Tmax [8] was 48 min and the AUCt [9] was 68163 ng·h/mL. The F [10] was 14.2%, the concentration at 0.5 h [11] was 52.1 ng/g and the concentration at 0.5 h [12] was 98.2 ng/g. It also gave a concentration at 0.5 h [13] of 32.2 ng/g, a concentration at 2 h [14] of 0.66 ng/g and a concentration at 2 h [15] of 206 ng/g. It also gave a concentration at 4 h [16] of 7.99 ng/g, a concentration at 4 h [17] of 137 ng/g and a concentration at 4 h [18] of 113 ng/g. The concentration at 1 h [19] was 4.15 ng/g, the concentration at 1 h [20] was 41.6 ng/g and the concentration at 1 h [21] was 267 ng/g. For the same compound, the concentration at 1 h [22] was 78.8 ng/g, the concentration at 3 h [23] was 3.31 ng/g and the concentration at 3 h [24] was 287 ng/g. It also gave a concentration at 8 h [25] of 656 ng/g, a concentration at 8 h [26] of 527 ng/g and a concentration at 8 h [27] of 137 ng/g. The Activity [28] was “Non-Toxic”, the Activity [29] was “Non-Toxic” and the Activity (Mus musculus [30]) was “Active”. For the same compound, the Activity (Mus musculus [31]) was “Active”, the Activity (Mus musculus [32]) was “Active” and the Activity (Mus musculus [33]) was “Active”. For the same compound, the Activity (Mus musculus [34]) was “Active”.

— ChEMBL document CHEMBL5338758, “Design, Synthesis, and Bioevaluation of Novel MyD88 Inhibitor c17 against Acute Lung Injury Derived from the Virtual Screen” (J Med Chem, 2023)
